Data set [1] can be described thus: Half life in human liver microsomes by LC/MS/MS analysis. It is filed as ADME. On the technique in general: Liver microsomes are a subcellular fraction often used to study metabolism.
The nature of data set [2]: Half life in rat liver microsomes by LC/MS/MS analysis. It is filed as ADME.
For data set [3], the target named is T1, ALK tyrosine kinase receptor (Homo sapiens, UniProt Q9UM73). In words: Inhibition of human ALK expressed in baculovirus using recombinant GST PLC-gamma as substrate assessed as phosphorylation of the substrate after 15 mins by TRF assay.
Another data set concerns the target Insulin receptor (Homo sapiens, UniProt P06213).
Data set [4] can be described thus: Drug level in human liver microsomes treated with (1S,2S,3R,4R)-3-(5-chloro-2-((S)-1-methoxy-7-morpholino-6,7,8,9-tetrahydro-5H-benzo[7]annulen-2-ylamino)pyrimidin-4-ylamino)bicyclo[2.2.1]hept-5-ene-2-carboxamide at 10 uM after 120 mins in presence of NADPH by LC/MS/MS analysis. Particulars: 2 h. Format: ADME.
The nature of data set [5]: Drug level in rat liver microsomes treated with (1S,2S,3R,4R)-3-(5-chloro-2-((S)-1-methoxy-7-morpholino-6,7,8,9-tetrahydro-5H-benzo[7]annulen-2-ylamino)pyrimidin-4-ylamino)bicyclo[2.2.1]hept-5-ene-2-carboxamide at 10 uM after 120 mins in presence of NADPH by LC/MS/MS analysis. Format: ADME. Conditions: 2 h.
Another data set concerns the target T2, Cytochrome P450 1A2 (Homo sapiens, UniProt P05177).
T2 sequence (P05177 whole entry): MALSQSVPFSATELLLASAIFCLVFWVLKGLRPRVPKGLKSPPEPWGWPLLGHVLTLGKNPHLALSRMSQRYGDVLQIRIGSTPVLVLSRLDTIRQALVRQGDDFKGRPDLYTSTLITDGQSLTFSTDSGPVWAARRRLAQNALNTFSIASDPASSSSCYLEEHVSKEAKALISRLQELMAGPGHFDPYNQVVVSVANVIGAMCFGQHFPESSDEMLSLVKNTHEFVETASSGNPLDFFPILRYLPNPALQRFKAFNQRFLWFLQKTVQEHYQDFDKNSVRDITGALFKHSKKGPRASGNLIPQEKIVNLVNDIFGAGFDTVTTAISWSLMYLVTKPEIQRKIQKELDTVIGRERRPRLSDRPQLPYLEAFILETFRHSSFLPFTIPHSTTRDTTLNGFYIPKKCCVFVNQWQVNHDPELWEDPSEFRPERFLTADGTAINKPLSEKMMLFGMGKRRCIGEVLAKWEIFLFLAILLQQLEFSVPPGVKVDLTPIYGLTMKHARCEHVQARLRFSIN
In words: Inhibition of CYP1A2 in human liver microsomes using phenacetin as substrate in presence of NADPH by LC/MS/MS analysis. It is filed as ADME.

The next data set addresses Cytochrome P450 2C9 (Homo sapiens, UniProt P11712). The experiment in a line: Inhibition of CYP2C9 in human liver microsomes using diclofenac as substrate in presence of NADPH by LC/MS/MS analysis. It is filed as ADME.
The target of a further data set is Cytochrome P450 3A4 (Homo sapiens, UniProt P08684). The experiment in a line: Inhibition of CYP3A4 in human liver microsomes using testosterone/midazolam as substrate in presence of NADPH by LC/MS/MS analysis. It is filed as ADME.
Cytochrome P450 3A4, sequence (P08684 whole entry): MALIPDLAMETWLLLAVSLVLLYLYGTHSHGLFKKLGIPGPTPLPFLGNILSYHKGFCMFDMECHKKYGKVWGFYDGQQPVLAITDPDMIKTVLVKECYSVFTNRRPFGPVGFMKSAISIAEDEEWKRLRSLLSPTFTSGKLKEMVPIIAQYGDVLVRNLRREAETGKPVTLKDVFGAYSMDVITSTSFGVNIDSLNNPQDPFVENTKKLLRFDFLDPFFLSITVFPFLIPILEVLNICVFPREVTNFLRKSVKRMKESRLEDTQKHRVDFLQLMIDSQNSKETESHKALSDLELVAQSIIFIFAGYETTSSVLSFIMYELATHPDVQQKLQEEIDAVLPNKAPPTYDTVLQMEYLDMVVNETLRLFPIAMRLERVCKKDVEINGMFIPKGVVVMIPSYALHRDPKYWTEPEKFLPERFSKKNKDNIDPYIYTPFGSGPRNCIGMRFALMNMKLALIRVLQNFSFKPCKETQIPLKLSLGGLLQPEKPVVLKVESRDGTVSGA
A short description of data set [6]: Half life in CD-1 mouse liver microsomes by LC/MS/MS analysis. Format: ADME.
Another data set has as its target Cytochrome P450 2D6 (Homo sapiens, UniProt P10635). In words: Inhibition of CYP2D6 in human liver microsomes using dextromethorphan as substrate in presence of NADPH by LC/MS/MS analysis. It is filed as ADME.
Data set [7] addresses Voltage-gated inwardly rectifying potassium channel KCNH2 (Homo sapiens, UniProt Q12809). The experiment in a line: Inhibition of human ERG.
Data set [8] is described as follows: Oral bioavailability in Sprague-Dawley rat at 5 mg/kg by LC/MS/MS analysis. Format: ADME, organism-based. Particulars: in vivo.
The target in data set [9] is T1, ALK tyrosine kinase receptor. The experiment in a line: Inhibition of NPM-ALK phosphorylation in human SUP-M2 cells after 2 to 3 hrs by ELISA. It is filed as cell-based.
Target sequence in this assay (Q9UM73 19-1620 limits assumed): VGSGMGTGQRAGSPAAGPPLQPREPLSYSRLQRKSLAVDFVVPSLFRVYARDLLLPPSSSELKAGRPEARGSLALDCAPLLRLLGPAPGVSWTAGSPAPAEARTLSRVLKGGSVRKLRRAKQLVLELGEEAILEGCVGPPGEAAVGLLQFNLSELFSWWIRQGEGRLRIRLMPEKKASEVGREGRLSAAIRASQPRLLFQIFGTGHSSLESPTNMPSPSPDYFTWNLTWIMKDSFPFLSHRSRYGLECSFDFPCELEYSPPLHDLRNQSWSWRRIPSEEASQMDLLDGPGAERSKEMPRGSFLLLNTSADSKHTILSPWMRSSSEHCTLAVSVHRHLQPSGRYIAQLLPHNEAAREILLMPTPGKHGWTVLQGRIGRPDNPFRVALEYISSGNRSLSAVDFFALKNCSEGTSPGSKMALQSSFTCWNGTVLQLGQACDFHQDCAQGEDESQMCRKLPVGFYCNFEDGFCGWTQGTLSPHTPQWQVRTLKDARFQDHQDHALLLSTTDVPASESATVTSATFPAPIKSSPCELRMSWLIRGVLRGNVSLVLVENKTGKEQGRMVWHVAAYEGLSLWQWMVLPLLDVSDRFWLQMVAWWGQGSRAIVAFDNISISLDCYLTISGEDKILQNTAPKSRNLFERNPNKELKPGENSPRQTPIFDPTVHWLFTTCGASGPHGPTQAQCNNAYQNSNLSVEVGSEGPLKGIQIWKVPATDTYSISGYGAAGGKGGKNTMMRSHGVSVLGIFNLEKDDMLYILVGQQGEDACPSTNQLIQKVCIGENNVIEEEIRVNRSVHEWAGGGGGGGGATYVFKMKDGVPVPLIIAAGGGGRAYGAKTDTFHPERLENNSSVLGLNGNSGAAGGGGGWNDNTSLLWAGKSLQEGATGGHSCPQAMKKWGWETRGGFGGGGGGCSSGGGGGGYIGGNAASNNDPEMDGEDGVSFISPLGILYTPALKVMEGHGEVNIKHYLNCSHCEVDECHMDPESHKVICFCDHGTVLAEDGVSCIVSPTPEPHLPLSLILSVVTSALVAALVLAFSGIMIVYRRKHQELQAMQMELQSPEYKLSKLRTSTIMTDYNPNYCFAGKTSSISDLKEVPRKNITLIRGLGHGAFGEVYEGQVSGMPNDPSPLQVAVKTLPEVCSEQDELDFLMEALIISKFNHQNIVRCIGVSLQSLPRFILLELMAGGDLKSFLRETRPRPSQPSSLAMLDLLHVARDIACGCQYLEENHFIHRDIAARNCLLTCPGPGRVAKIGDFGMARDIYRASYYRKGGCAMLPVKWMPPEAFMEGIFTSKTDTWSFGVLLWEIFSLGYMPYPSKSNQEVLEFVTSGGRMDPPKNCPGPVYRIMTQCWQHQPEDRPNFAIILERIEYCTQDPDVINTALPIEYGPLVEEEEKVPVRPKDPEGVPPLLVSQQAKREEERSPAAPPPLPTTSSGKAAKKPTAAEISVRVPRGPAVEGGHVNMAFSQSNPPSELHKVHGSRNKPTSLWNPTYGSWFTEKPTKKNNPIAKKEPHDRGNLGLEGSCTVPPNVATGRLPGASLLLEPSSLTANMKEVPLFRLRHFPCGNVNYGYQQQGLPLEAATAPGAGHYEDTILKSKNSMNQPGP
Another data set deals with Cytochrome P450 2C19 (Homo sapiens, UniProt P33261). The experiment in a line: Inhibition of CYP2C19 in human liver microsomes using S-mephenytoin as substrate in presence of NADPH by LC/MS/MS analysis. It is filed as ADME.
Cytochrome P450 2C19, sequence (P33261 whole entry): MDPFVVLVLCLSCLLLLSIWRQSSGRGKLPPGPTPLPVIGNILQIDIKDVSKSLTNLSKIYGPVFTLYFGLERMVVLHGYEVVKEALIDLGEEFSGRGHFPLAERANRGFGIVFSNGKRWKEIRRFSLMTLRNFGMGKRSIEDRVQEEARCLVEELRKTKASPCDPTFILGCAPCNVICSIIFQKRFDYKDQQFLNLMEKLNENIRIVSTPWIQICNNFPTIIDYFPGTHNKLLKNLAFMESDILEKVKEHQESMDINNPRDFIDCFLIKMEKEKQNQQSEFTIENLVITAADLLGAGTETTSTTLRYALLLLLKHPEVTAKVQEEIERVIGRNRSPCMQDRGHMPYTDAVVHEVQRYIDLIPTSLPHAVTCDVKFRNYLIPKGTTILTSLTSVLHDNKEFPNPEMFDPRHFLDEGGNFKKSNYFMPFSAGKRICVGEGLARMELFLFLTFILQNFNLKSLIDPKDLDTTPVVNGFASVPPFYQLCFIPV
Data set [10] can be described thus: AUC (0 to infinity) in Sprague-Dawley rat at 5 mg/kg, po by LC/MS/MS analysis. Format: ADME, organism-based. Details: dose 5 mg/kg, time infinity, route oral. Conditions: in vivo.
The nature of data set [11]: Half life in cynomolgus monkey liver microsomes by LC/MS/MS analysis. Format: ADME, Macaca fascicularis.
Data set [12] is described as follows: Apparent permeability from apical to basolateral side in human Caco2 cells. It is filed as ADME, cell-based. Conditions: Caco-2. On the technique in general: Caco-2 cells form a polarised layer with tight junctions and transporters.
Data set [13] in a line: Drug metabolism in cynomolgus monkey liver microsomes assessed as methyl group loss from N-methylmethanesulfonamide. Format: ADME, Macaca fascicularis.
A short description of data set [14]: AUC (0 to 6 hrs) in rat by LC/MS/MS analysis. It is filed as ADME. Details: time < 6 hr. Conditions: in vivo.
Data set [15] can be described thus: Drug metabolism in mouse liver microsomes assessed as methyl group loss from N-methylmethanesulfonamide. Format: ADME.
The nature of data set [16]: Drug metabolism in rat liver microsomes assessed as methyl group loss from N-methylmethanesulfonamide. It is filed as ADME.
Data set [17] can be described thus: Drug metabolism in human liver microsomes assessed as methyl group loss from N-methylmethanesulfonamide. Format: ADME.

Cytochrome P450 2C9, sequence (P11712 whole entry): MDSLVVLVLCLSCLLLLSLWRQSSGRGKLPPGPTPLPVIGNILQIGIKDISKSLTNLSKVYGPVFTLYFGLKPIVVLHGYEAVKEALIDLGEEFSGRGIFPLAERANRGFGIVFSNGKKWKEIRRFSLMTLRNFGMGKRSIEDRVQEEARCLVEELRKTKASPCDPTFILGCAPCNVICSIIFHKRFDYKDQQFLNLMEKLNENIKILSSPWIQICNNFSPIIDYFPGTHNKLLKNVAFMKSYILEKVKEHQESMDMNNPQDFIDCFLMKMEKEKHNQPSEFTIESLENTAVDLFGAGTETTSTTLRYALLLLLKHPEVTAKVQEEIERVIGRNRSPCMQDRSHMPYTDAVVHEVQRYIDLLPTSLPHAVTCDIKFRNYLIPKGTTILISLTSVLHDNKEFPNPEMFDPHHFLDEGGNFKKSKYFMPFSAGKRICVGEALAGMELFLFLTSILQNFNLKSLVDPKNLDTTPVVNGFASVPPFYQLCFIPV
Cytochrome P450 2D6, sequence (P10635 whole entry): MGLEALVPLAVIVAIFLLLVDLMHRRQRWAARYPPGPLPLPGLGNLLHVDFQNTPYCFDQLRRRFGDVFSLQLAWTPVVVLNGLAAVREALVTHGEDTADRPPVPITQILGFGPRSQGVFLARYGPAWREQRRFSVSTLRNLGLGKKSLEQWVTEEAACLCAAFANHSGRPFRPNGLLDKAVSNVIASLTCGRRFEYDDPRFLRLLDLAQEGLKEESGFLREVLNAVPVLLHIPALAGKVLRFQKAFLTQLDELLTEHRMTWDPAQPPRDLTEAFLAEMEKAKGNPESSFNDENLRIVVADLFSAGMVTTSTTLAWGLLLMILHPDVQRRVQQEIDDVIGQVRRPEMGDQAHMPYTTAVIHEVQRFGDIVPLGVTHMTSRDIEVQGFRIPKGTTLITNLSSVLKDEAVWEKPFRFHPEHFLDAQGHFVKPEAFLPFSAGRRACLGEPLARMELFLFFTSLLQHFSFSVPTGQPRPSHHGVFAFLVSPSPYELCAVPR
Voltage-gated inwardly rectifying potassium channel KCNH2, sequence (Q12809 whole entry): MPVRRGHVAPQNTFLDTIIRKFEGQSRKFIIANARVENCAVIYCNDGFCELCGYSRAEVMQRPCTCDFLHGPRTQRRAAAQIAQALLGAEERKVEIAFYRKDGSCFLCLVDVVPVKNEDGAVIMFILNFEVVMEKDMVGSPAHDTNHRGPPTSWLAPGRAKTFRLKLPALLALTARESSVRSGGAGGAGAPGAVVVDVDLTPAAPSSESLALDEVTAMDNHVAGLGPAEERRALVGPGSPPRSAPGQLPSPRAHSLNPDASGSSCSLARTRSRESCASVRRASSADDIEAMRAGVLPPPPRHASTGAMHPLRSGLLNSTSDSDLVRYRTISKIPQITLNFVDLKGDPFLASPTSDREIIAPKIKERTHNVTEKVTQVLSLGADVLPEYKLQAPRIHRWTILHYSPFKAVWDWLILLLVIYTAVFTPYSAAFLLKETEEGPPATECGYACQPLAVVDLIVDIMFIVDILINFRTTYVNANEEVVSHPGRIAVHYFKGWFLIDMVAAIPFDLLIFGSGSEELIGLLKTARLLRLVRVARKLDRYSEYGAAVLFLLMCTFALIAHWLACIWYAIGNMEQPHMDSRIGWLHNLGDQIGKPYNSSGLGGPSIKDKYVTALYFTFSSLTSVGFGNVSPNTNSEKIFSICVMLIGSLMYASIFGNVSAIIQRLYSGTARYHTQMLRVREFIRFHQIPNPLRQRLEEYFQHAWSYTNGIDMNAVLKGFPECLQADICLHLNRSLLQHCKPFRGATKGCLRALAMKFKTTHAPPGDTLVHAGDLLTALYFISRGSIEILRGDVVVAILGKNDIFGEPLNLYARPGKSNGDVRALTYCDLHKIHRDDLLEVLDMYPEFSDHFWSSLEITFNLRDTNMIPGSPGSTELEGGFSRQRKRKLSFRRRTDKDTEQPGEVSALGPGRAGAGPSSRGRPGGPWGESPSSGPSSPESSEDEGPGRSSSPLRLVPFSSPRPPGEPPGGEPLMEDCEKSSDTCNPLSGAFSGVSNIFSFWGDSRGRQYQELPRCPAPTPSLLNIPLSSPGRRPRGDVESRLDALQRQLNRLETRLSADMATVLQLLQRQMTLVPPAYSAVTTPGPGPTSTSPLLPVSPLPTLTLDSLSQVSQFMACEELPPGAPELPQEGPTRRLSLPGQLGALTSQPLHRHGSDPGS
Description for Insulin receptor: Inhibition of recombinant human INSR expressed in baculovirus using ATP as substrate after 15 mins by TRF assay

For `COc1c(Nc2ncc(Cl)c(N[C@H]3[C@@H](C(N)=O)[C@@H]4C=C[C@H]3C4)n2)ccc2c1CCC[C@@H](N1CCOCC1)C2`, the half-life in data set [1] and in [2] was 5 min in each case. Further, the IC50 (commonly the concentration that inhibits the measured activity by half) in data set [3] was 1.5 nM.
With `COc1c(Nc2ncc(Cl)c(N[C@H]3[C@@H](C(N)=O)[C@@H]4C=C[C@H]3C4)n2)ccc2c1CC(N1CCOCC1)CCC2` (stereo partly specified), the IC50 was 39 nM in data set [3] and above 10000 nM against Insulin receptor.
Take `COc1c(Nc2ncc(Cl)c(N[C@H]3[C@@H](C(N)=O)[C@H]4C[C@@H]3C3OC34)n2)ccc2c1CC[C@@H](N1CCOCC1)CC2` (stereo partly specified): the Drug metabolism result in data set [4] and in data set [5] was “Metabolite_Detected” throughout.
As to `COc1c(Nc2ncc(Cl)c(N[C@H]3[C@@H](C(N)=O)[C@@H]4C=C[C@H]3C4)n2)ccc2c1CCC[C@H](N1CCN(C)CC1)C2`, the IC50 at Cytochrome P450 1A2 is above 10000 nM; on Cytochrome P450 2C9 it was above 10000 nM; at Cytochrome P450 3A4 it was above 10000 nM; at Cytochrome P450 2D6 it was above 10000 nM; in data set [7], 9100 nM; in [9], 200 nM. For the same molecule, the IC50 is above 10000 nM on Cytochrome P450 2C19 and 9 to 14 nM in [3]. Further, the half-life – broadly, the time needed for the level to fall by half in the phase considered – in data set [1] worked out at 15 min; in data set [2], 40 min; in data set [6] it was 40 min; in data set [11], 9 min. The bioavailability (as a rule, the share of a dose that reaches the circulation, judged against a reference dose that is usually intravenous) in data set [8] stood at 11%. In addition, the AUC(0-inf) (usually the area under the concentration-time curve extrapolated to infinity) in [10] amounted to 4400 ng·h/mL.
As for `COc1c(Nc2ncc(Cl)c(N[C@H]3[C@@H](C(N)=O)[C@@H]4C=C[C@H]3C4)n2)ccc2c1CCC[C@@H](N1CCN(CCO)CC1)C2`, the IC50 is above 10000 nM in data set [7], 50 nM in [9] and 6.3 nM in [3].
Take `COc1c(Nc2ncc(Cl)c(N[C@H]3[C@@H](C(N)=O)[C@@H]4C=C[C@H]3C4)n2)ccc2c1CCC[C@H](N1CCOCC1)C2`: the figures for the half-life in data set [1] and in data set [2] were 6 min and 5 min, respectively. Besides, the IC50 in data set [3] amounted to 7 nM.
The corresponding values for `COCCNC1CCCc2c(ccc(Nc3ncc(Cl)c(N[C@H]4[C@@H](C(N)=O)[C@@H]5C=C[C@H]4C5)n3)c2OC)C1` (stereo partly specified) are 15 min, 31 min and 7 nM.
Regarding `CNC(=O)c1ccccc1Nc1nc(Nc2ccc3c(c2OC)CCC[C@@H](N2CCN(CCO)CC2)C3)ncc1Cl`, the Papp A→B (in general, how fast a substance crosses the layer from the apical side) in data set [12] is above 1 ×10⁻⁶ cm/s. Also, the IC50 is above 5600 nM on Cytochrome P450 1A2; above 5600 nM on Cytochrome P450 2C9; above 5600 nM on Cytochrome P450 2D6; above 10000 nM in data set [7]; above 5600 nM on Cytochrome P450 2C19. In addition, the half-life was 40 min in data set [1], 40 min in [2], 40 min in [6] and 24 min in [11]. In [8], this molecule showed a bioavailability of 18%. Further, in data set [10], the AUC(0-inf) was 1200 ng·h/mL.
Regarding `COc1c(Nc2ncc(Cl)c(N[C@H]3[C@@H](C(N)=O)[C@@H]4C=C[C@H]3C4)n2)ccc2c1CCC[C@H](N1CCN(CCO)CC1)C2`, the half-life in data set [1] was 18 min; in data set [2], 15 min. In addition, the IC50 was above 10000 nM in data set [7], 30 nM in [9] and 5.8 nM in data set [3]. For the same molecule, the bioavailability in [8] worked out at 10%.
With `CNC(=O)c1ccccc1Nc1nc(Nc2ccc3c(c2OC)CCCC(N2CCN(CCO)CC2)C3)ncc1Cl` (racemic), the half-life in [1] and in data set [2] was above 40 min in each case. Further, the IC50 in data set [7] is at least 10000 nM. In addition, the bioavailability in data set [8] is 47%.
Consider `COc1c(Nc2ncc(Cl)c(Nc3ccccc3S(=O)(=O)N(C)C)n2)ccc2c1CCCC(N1CCN(CCO)CC1)C2` (racemic), for which the half-life in data set [1] came out at 18 min; in [2], 40 min. Further, the IC50 in [7] was found to be 240 nM; in [9] it was 40 nM; in data set [3], 4 nM. Besides, the bioavailability in data set [8] was 28%.
On to `COc1c(Nc2ncc(Cl)c(Nc3ccccc3N3CCCS3(=O)=O)n2)ccc2c1CCCC(N1CCN(CCO)CC1)C2` (racemic), for which the half-life in [1] was 16 min; in data set [2], 38 min. The bioavailability in [8] turned out to be 48%. Moreover, the IC50 was 60 nM in data set [9] and 6.1 nM in data set [3].
In the case of `COc1c(Nc2ncc(Cl)c(Nc3ccccc3-n3cccn3)n2)ccc2c1CCCC(N1CCN(CCO)CC1)C2` (racemic), the half-life in data set [1] and in data set [2] was 40 min each time. Moreover, the IC50 turned out to be 3700 nM in data set [7], 20 nM in [9] and 2.3 nM in data set [3]. The bioavailability in data set [8] was determined as 19%.
Take `COc1c(Nc2ncc(Cl)c(Nc3ccccc3N(C)S(C)(=O)=O)n2)ccc2c1CCCC(N1CCN(CCO)CC1)C2` (racemic): the Drug metabolism result in [13], in data set [15], in data set [16] and in data set [17] was “Metabolite_Detected” in each case. For the same molecule, the AUC(0-t) – broadly, exposure summed from dosing to a finite time, without extrapolation to infinity – at 6 h in data set [14] came out at 3960 ng·h/mL. In addition, the half-life was 13 min in data set [1], 37 min in [2], 37 min in data set [6] and 8 min in data set [11]. In [8], this molecule returned a bioavailability of 38%. The IC50 in [9] was 30 nM; in data set [3], 2 nM.
Take `COc1ccccc1Nc1nc(Nc2ccc3c(c2OC)CCCC(N2CCN(CCO)CC2)C3)ncc1Cl` (racemic): the IC50 in data set [3] is 44 nM.
Take `COc1c(Nc2ncc(Cl)c(Nc3ccccc3NS(C)(=O)=O)n2)ccc2c1CCCC(N1CCN(CCO)CC1)C2` (racemic): the half-life in data set [1] and in data set [2] was 40 min in each case. The IC50 in data set [3] was 18 nM; against Insulin receptor, above 2000 nM.
As to `COc1c(Nc2ncc(Cl)c(Nc3ccccc3-c3nccn3C)n2)ccc2c1CCCC(N1CCN(CCO)CC1)C2` (racemic), the half-life stood at 18 min in data set [1] and 22 min in data set [2]. In [8], the bioavailability was determined as 19%. Also, the IC50 came to 50 nM in data set [9] and 5 nM in data set [3].
Consider `COc1c(Nc2ncc(Cl)c(Nc3ccccc3N(C)S(C)(=O)=O)n2)ccc2c1CCCC(N1CCN(C)CC1)C2` (racemic), for which the AUC(0-t) at 6 h in data set [14] came out at 1300 ng·h/mL. Further, the half-life worked out at 12 min in [1] and 33 min in [2]. In [8], this molecule gave a bioavailability of 9%. Further, the IC50 in data set [9] worked out at 40 nM; in data set [3], 2.3 nM.
For `COc1c(Nc2ncc(Cl)c(N[C@H]3[C@@H](C(N)=O)[C@@H]4C=C[C@H]3C4)n2)ccc2c1CCCC(N1CCN(C)CC1)C2` (single isomer, unassigned), the IC50 at Cytochrome P450 1A2 is above 10000 nM; on Cytochrome P450 2C9, above 10000 nM; on Cytochrome P450 3A4 it was above 10000 nM; on Cytochrome P450 2D6 it was above 10000 nM; in data set [7] it was 7900 nM; in data set [9], 200 nM. The IC50 is above 10000 nM on Cytochrome P450 2C19 and 9 nM in data set [3]. For the same molecule, the half-life in data set [1] is 11 min; in data set [2], 39 min; in data set [6], 40 min; in data set [11], 7 min. Further, in [8], the bioavailability is 11%. Besides, in data set [10], the AUC(0-inf) was 5530 ng·h/mL.

For the origin of these results see ChEMBL document CHEMBL3856231 (J Med Chem, 2016).
